# Results taken from patent publication US12678413B2, “Compositions containing pterosin compound and derivatives thereof active ingredients for prevention or treatment of degenerative brain diseases” (priority 2017, dated 2026).
# Read-outs that look alike come from different tables or passages of the source.
# Columns and labels:
# [1] = target: T1, BACE1 (β-secretase, recombinant human enzyme) (Homo sapiens, UniProt P56817); experiment: In vitro BACE1 activity assay (FRET kit); format: biochemical; details: compounds in 10% DMSO, concentrations up to 125 μM
# T1 construct: purchased Pan Vera Co. (Madison, WI, USA)
# T1 sequence (P56817 46-501): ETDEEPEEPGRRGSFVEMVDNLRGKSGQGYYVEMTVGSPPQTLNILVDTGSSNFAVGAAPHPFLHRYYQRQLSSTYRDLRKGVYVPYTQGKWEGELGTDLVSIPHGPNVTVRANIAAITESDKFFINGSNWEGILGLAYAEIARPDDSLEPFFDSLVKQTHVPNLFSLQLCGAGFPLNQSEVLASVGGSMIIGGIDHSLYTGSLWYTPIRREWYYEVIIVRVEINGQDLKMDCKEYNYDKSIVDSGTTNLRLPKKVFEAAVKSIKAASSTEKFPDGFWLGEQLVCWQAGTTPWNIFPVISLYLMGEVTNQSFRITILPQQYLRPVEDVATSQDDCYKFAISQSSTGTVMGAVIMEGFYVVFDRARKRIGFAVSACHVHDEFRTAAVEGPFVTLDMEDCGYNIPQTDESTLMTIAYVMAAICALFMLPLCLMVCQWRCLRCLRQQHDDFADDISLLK
# From the text: BACE1 (beta-secretase) FRET assay kit was purchased from Pan Vera Co. (Madison, WI, USA). All the chemicals and solvents used in column chromatography were of reagent grade and were used as received without further purification.
# A BACE1 fluorescence resonance energy transfer (FRET) assay kit (β-secretase, recombinant human enzyme) was purchased from Pan Vera Co. (Madison, WI, USA).
# BACE1 is an enzyme promotive of the production of β-amyloid, which destroys neurons. In order to examine the effects on the compounds of Table 1 on the activity of BACE1, IC(inhibition concentrations)50 values were determined by measuring BACE1 activity in vitro according to Experimental Methods.
# [2] = target: T2, butyrylcholinesterase (BChE) (Equus caballus, UniProt P81908); experiment: In vitro cholinesterase activity assay (Ellman), BChE; format: biochemical; details: concentrations up to 125 μM; Mean ± SEM; read-out: IC50 Butyrylcholine esterase Mean ± SEM
# T2 construct: horse serum butyrylcholinesterase (BChE, EC3.1.1.8); purchased Sigma-Aldrich Co. (St. Louis, MO, USA); host or cells: horse serum
# T2 sequence (P81908 whole entry): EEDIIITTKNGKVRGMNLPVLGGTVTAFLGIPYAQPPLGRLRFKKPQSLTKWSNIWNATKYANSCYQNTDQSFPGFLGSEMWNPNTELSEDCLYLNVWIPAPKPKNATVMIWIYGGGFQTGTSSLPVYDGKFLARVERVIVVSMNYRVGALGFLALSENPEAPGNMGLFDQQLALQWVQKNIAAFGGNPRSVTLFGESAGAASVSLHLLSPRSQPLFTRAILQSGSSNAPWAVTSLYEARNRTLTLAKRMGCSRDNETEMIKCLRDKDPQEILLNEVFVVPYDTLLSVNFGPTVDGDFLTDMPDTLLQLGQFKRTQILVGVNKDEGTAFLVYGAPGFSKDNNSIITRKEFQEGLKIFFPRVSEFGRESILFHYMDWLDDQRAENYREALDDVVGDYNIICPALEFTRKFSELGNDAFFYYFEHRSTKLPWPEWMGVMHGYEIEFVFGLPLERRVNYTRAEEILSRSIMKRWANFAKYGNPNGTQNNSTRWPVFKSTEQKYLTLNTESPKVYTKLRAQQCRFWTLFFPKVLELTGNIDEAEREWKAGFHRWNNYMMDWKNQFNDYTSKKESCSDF
# Protocol: (§1) The reaction started with the addition of 10 μL of DTNB and 10 μL of Ach or Bch.
# (§2) Briefly, the basis for this assay is the hydrolysis of acetylthiocholine by acetylcholinesterase, producing thiocholine that reacts with DTNB. […] Degrees of inhibition were calculated according to […] wherein E and S represent enzyme activities in the presence and absence of a test sample, respectively.
# (§3) The compounds of Table 1 were evaluated for anti-Alzheimer activity. In this regard, inhibitory activity against AChE (acetylcholinesterase) and BChE (butyrylcholinesterase), which lyse acetylcholine in the central nervous system, was measured according to the Experimental Method to calculate IC(inhibition concentrations)50 values.
# [3] = target: T3, acetylcholinesterase (AChE) (Electrophorus electricus, UniProt O42275); experiment: In vitro cholinesterase activity assay (Ellman), AChE; format: biochemical; details: for IC50: concentrations up to 125 μM, Mean ± SEM, read-out: IC50 Acetylcholine Esterase Mean ± SEM; for SI: selectivity index (BChE/AChE): ratio of IC50 BChE/AChE
# T3 construct: purchased Sigma-Aldrich Co. (St. Louis, MO, USA)
# T3 sequence (O42275 24-633): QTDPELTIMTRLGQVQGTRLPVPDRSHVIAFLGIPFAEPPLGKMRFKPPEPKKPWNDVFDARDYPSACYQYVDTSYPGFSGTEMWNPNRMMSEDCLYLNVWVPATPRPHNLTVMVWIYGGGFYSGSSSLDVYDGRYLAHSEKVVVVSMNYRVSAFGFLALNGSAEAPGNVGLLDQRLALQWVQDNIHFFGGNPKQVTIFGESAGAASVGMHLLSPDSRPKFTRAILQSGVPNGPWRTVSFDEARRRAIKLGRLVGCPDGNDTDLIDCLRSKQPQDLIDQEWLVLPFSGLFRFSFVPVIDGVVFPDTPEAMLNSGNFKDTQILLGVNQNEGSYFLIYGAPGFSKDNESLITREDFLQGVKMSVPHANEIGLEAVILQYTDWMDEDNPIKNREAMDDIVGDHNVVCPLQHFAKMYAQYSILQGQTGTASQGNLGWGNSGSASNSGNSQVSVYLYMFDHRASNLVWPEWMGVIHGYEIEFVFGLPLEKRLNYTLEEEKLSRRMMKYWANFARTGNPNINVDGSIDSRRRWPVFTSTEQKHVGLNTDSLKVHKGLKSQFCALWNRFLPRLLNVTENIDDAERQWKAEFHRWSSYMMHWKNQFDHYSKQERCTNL
# Protocol: as §1, §2, §3
# B16F10 cells = experiment: MTT cytotoxicity assay, cancerous cell line B16F10; format: cell-based; details: B16F10 mouse melanoma, 48 hours incubation
# Protocol: (§4) The normal cell line NIH3T3 (mouse embryo fibroblast cell-line) and the cancerous cell line B16F10 (mouse melanoma cell-line) were separately grown in 96-well plates and incubated for 48 hours with predetermined concentrations of each of the compounds. After additional incubation with MTT, absorbance at 550 nm was read using a microplate reader. Absorbance is an index accounting for a number of viable cells and was used to calculate cell proliferation rates according to the following formula. All experiments were conducted three times for reproducibility. Cell proliferation rate (%)=OD550(sample)/OD550(control)
# (§5) Then, LD50 (Lethal Dose 50) values were calculated on the basis of changes in the cell proliferation rate.
# NIH3T3 cells = experiment: MTT cytotoxicity assay, normal cell line NIH3T3; format: cell-based; details: NIH3T3 mouse embryo fibroblast, 48 hours incubation
# Protocol: as §4, §5
# BACE1 = target: T4, BACE1 (Homo sapiens, UniProt P56817); experiment: BACE1 enzyme kinetics (Dixon plot and Lineweaver plot); format: biochemical
# T4 construct: purchased Pan Vera Co. (Madison, WI, USA)
# T4 sequence (P56817 46-501): as the sequence (P56817 46-501) above
# Protocol: A BACE1 fluorescence resonance energy transfer (FRET) assay kit (β-secretase, recombinant human enzyme) was purchased from Pan Vera Co. (Madison, WI, USA). The assay was carried out according to the manual provided, with a modification made thereto as described by Jung et al. (Jung et al., Biol Pharm Bull, 2010, 33:267-272). Quercetin was used as a positive control.
# In addition, an enzyme kinetics experiment was conducted using the Lineweaver plot and Dixon plot (see FIG. 7) in order to examine the BACE1 inhibition mechanism of the novel compound (Compound 2). […] The results of the experiment indicate that the novel compound of the present disclosure is a very potent inhibitor against BACE1.
# [4] = target: T2, butyrylcholinesterase (BChE); experiment: BChE enzyme kinetics (Dixon plot and Lineweaver plot); format: biochemical
# Protocol: as §1, §2
# [5] = target: T3, acetylcholinesterase (AChE); experiment: AChE enzyme kinetics (Dixon plot and Lineweaver plot); format: biochemical
# Protocol: as §1, §2
# [6] = listed as 3-[2-(1-acetylcycloproply)-1-propenyl]-5-methyl-2-cyclopenten-1-one
SMILES,IC50 [1] [µM],IC50 [2] [µM],IC50 [3] [µM],SI: selectivity index (BChE/AChE) [3],LD50 Cancer cell B16F10 (B16F10 cells),LD50 Normal cell NIH3T3 (NIH3T3 cells),Ki (BACE1) [µM],also measured
"Cc1cc2c(c(C)c1CCO[C@@H]1OC(CO)[C@@H](O)C(O)C1O)C(=O)[C@](C)(O)C2 (single isomer, unassigned; (-)) [Compound 18, (−)-pteroside N]",30.6 ± 1.8,7.39 ± 0.99,4.47 ± 0.29,1.7,">5,000 μM",">5,000 μM",,
"COc1ccc2cc3[n+](cc2c1OC)CCc1cc2c(cc1-3)OCO2 [Berberine, reference compound]",,,0.39 ± 0.01,,,,,
"CC(=O)C1(/C(C)=C\C2=CC(=O)C(C)C2)CC1 (stereo not shown) [Compound 2, 3-[2-(1-Acetylcyclopropyl)-1-propenyl)-5-methyl-2-cyclopenten-1-one]",,,,0.83,688 µM,"1,550 μM",19,"Inhibition type BACE1 (BACE1; [6]): Mixed-type; Inhibition type BACE1 (BACE1; listed as novel compound): mixed type; LD50 Cancer cell B16F10 (B16F10 cells; [6]): 688 ± 17 µM; LD50 Normal cell NIH3T3 (NIH3T3 cells; [6]): 1,550 ± 100 μM"
"Cc1cc2c(c(C)c1CCO)C(=O)[C@](C)(CO)C2 [Compound 3, (2S)-pterosin A]",,,,1.2,,">5,000 μM",,LD50 Cancer cell B16F10 (B16F10 cells; listed as (2S)-Pterosin A): 522 ± 25 µM; LD50 Cancer cell B16F10 (B16F10 cells; listed as pterosin A): 522 ± 25 µM
"Cc1cc2c(c(C)c1CCO)C(=O)[C@H](C)C2 [Compound 4, (2R)-pterosin B]",,48.1 ± 0.59,16.2 ± 1,3.0,">5,000 μM",,38.3,"Inhibition type Butyrylcholinesterase [4]: noncompetitive type; Ki [4]: 53.5 µM; Inhibition type Butyrylcholinesterase ([4]; listed as (2R)-Pterosin B): Noncompetitive; Inhibition type BACE1 (BACE1): noncompetitive type; Inhibition type BACE1 (BACE1; listed as (2R)-Pterosin B): Noncompetitive; Inhibition type Acetylcholinesterase [5]: mixed type; Ki [5]: 12.1 µM; Inhibition type Acetylcholinesterase ([5]; listed as (2R)-Pterosin B): Mixed-type; LD50 Normal cell NIH3T3 (NIH3T3 cells; listed as (2,R)-Pterosin B): 3,110 ± 130 μM; LD50 Normal cell NIH3T3 (NIH3T3 cells; listed as pterosin B): 3,110±130 μM"
"Cc1cc2c(c(C)c1CCO)C(=O)[C@H](C)[C@@H]2O [Compound 5, (2R,3S)-pterosin C]",,,,,">5,000 μM",">5,000 μM",,
"Cc1cc2c(c(C)c1CCO)C(=O)[C@@H](C)[C@@H]2O [Compound 6, (2S,3S)-pterosin C]",,,,,">5,000 μM",">5,000 μM",,
"Cc1cc2c(c(C)c1CCO)C(=O)[C@H](C)[C@H]2O [Compound 7, (2R,3R)-pterosin C]",,20.3 ± 0.88,23.2 ± 4.6,0.89,">5,000 μM",">5,000 μM",27.6,"Inhibition type Butyrylcholinesterase [4]: mixed type; Ki [4]: 4.77 µM; Inhibition type Butyrylcholinesterase ([4]; listed as (2R,3R)-Pterosin C): Mixed-type; Inhibition type BACE1 (BACE1): mixed type; Inhibition type BACE1 (BACE1; listed as (2R,3R)-Pterosin C): Mixed-type; Inhibition type Acetylcholinesterase [5]: noncompetitive type; Ki [5]: 29.6 µM; Inhibition type Acetylcholinesterase ([5]; listed as (2R,3R)-Pterosin C): Noncompetitive"
"Cc1cc2c(c(C)c1CCO)C(=O)[C@@H](C)[C@H]2O [Compound 8, (2S,3R)-pterosin C]",,44.3 ± 1,12.8 ± 0.79,3.5,">5,000 μM",">5,000 μM",33.8,"Inhibition type Butyrylcholinesterase [4]: noncompetitive type; Ki [4]: 29.9 µM; Inhibition type Butyrylcholinesterase ([4]; listed as (2S,3R)-Pterosin C): Noncompetitive; Inhibition type BACE1 (BACE1): noncompetitive type; Inhibition type BACE1 (BACE1; listed as (2S,3R)-Pterosin C): Noncompetitive; Inhibition type Acetylcholinesterase [5]: mixed type; Ki [5]: 16.3 µM; Inhibition type Acetylcholinesterase ([5]; listed as (2S,3R)-Pterosin C): Mixed-type"
"Cc1cc2c(c(C)c1CCO)C(=O)C(C)(C)[C@@H]2O [Compound 9, (3R)-Pterosin D]",,> 125,68.7 ± 3.7,,">5,000 μM",">5,000 μM",,
"Cc1c(CCO)c(CO)cc2c1C(=O)[C@@H](C)C2 [Compound 10, (2S)-pterosin P]",,55.9 ± 5.6,17.8 ± 0.62,3.1,">5,000 μM",">5,000 μM",,
"Cc1cc2c(c(C)c1CCO)C(=O)C(C)(C)C2 [Compound 11, pterosin Z]",,80.1 ± 6.8,46.5 ± 3.4,1.7,,,,LD50 Cancer cell B16F10 (B16F10 cells; listed as PterosinZ): 618 ± 71 µM; LD50 Cancer cell B16F10 (B16F10 cells; listed as pterosin Z): 618 ± 71 µM; LD50 Normal cell NIH3T3 (NIH3T3 cells; listed as PterosinZ): 553 ± 37 µM; LD50 Normal cell NIH3T3 (NIH3T3 cells; listed as pterosin Z): 553 ± 37 µM
"Cc1cc2c(c(C)c1CCO[C@@H]1OC(CO)[C@@H](O)[C@H](O)C1O)C(=O)[C@](C)(CO)C2 (stereo partly drawn) [Compound 12, (2S)-pteroside A]",84.6 ± 6,19.4 ± 0.22,110 ± 3,0.17,">5,000 μM",">5,000 μM",,
"Cc1cc2c(c(C)c1CCO)C(=O)[C@](C)(COC1O[C@H](CO)[C@@H](O)[C@H](O)[C@H]1O)C2 (stereo partly drawn) [Compound 13, (2S)-pteroside A2]",,,39.3 ± 1.9,3.0,">5,000 μM",">5,000 μM",,
"Cc1cc2c(c(C)c1CCO[C@@H]1OC(CO)[C@@H](O)[C@H](O)C1O)C(=O)[C@@H](C)[C@H]2O (stereo partly drawn) [Compound 15, (2S,3R)-pteroside C]",28.9 ± 2.2,,,1.4,">5,000 μM",">5,000 μM",,
"Cc1cc2c(c(C)c1CCO[C@@H]1OC(CO)[C@@H](O)[C@H](O)C1O)C(=O)[C@H](C)[C@H]2O (stereo partly drawn) [Compound 16, (2R,3R)-pteroside C]",9.74 ± 1.9,,,1.4,">5,000 μM",">5,000 μM",12.6,"Inhibition type BACE1 (BACE1): mixed type; Inhibition type BACE1 (BACE1; listed as (2R,3R)-Pteroside C): Mixed-type"
"Cc1cc2c(c(C)c1CCO[C@@H]1OC(CO)[C@@H](O)[C@H](O)C1O)C(=O)C(C)(C)[C@H]2O (stereo partly drawn) [Compound 17, (3S)-pteroside D]",10.7 ± 1.5,,,0.70,">5,000 μM",">5,000 μM",16.5,Inhibition type BACE1 (BACE1): mixed type; Inhibition type BACE1 (BACE1; listed as (3S)-Pteroside D): Mixed-type
"Cc1cc2c(c(C)c1CCO[C@@H]1OC(CO)[C@@H](O)[C@H](O)C1O)C(=O)C(C)(C)C2 (stereo partly shown) [Compound 20, pteroside Z]",60 ± 4.3,,22.4 ± 2.2,0.24,">5,000 μM",">5,000 μM",,
